Reference: ChEMBL document CHEMBL5356975, “Brønsted Acid-Mediated Conversion of Naturally Abundant Lathyrane Diterpenes: Are Rare 10,11-seco-Lathyrane Diterpenes Artifacts?” (J Nat Prod, 2024)
Calls of active or inactive are those of the source. The rule behind the calls is not given here.

Key:
[1] = tested on: BV-2; experiment: Cytotoxicity against mouse BV-2 cells assessed as reduction in cell viability at 20 uM incubated for 24 hrs by MTT assay; type: toxicity, cell-based; details: bv-2, 24 h
[2] = tested on: BV-2; experiment: Antineuroinflammatory activity in LPS induced mouse BV-2 cells assessed as inhibition of NO production at 20 uM pretreated for 4 hrs followed by LPS addition and measured after 24 hrs by griess reagent based assay relative to control; type: functional; details: time 28 hrs
[3] = tested on: BV-2; experiment: Antineuroinflammatory activity in LPS induced mouse BV-2 cells assessed as inhibition of NO production pretreated for 4 hrs followed by LPS addition and measured after 24 hrs by griess reagent based assay; type: functional, cell-based
[4] = tested on: BV-2; experiment: Antineuroinflammatory activity in LPS induced mouse BV-2 cells assessed as reduction in COX-2 protein expression at 10 uM pretreated for 4 hrs followed by LPS addition and measured after 24 hrs by Western blot analysis; type: functional, cell-based; details: time 28.0 hrs
[5] = tested on: BV-2; experiment: Antineuroinflammatory activity in LPS induced mouse BV-2 cells assessed as reduction in iNOS protein expression at 10 uM pretreated for 4 hrs followed by LPS addition and measured after 24 hrs by Western blot analysis; type: functional, cell-based; details: time 28.0 hrs

| SMILES | Activity [1] | IC50 [3] | also measured |
| --- | --- | --- | --- |
| C=C1CC[C@H](C(C)(C)OC)/C=C/[C@@H](C)C(=O)[C@@]2(O)C[C@H](C)[C@H](O)[C@@H]2[C@H]1O | Non-Toxic |  |  |
| C=CC(=O)OC(C)(C)[C@@H]1/C=C/[C@@H](C)C(=O)[C@@]2(O)C[C@H](C)[C@H](O)[C@@H]2[C@@H](O)C(=C)[C@@H](O)C1 | Non-Toxic | 7.7 µM | inhibition at 20 µM [2]: 70% |
| C=C1[C@@H](O)C[C@H](C(C)(C)OC)/C=C/[C@@H](C)C(=O)[C@@]2(O)C[C@H](C)[C@H](O)[C@@H]2[C@H]1O | Non-Toxic |  |  |
| C=C1CC[C@H](C(C)(C)OCCCO)/C=C/[C@@H](C)C(=O)[C@@]2(O)C[C@H](C)[C@H](O)[C@@H]2[C@H]1O | Non-Toxic | 13 µM | inhibition at 20 µM [2]: 63% |
| C=C1[C@@H](O)C[C@H](C(C)(C)OC(=O)CC)/C=C/[C@@H](C)C(=O)[C@@]2(O)C[C@H](C)[C@H](O)[C@@H]2[C@H]1O | Non-Toxic |  |  |
| C=C1CC[C@H](C(C)(C)OC(=O)CC)/C=C/[C@@H](C)C(=O)[C@@]2(O)C[C@H](C)[C@H](O)[C@@H]2[C@H]1O | Non-Toxic |  |  |
| C=C1CC[C@H](C(C)(C)OCC)/C=C/[C@@H](C)C(=O)[C@@]2(O)C[C@H](C)[C@H](O)[C@@H]2[C@H]1O | Non-Toxic |  |  |
| C=C1CC[C@H](C(C)(C)OC(=O)COCC)/C=C/[C@@H](C)C(=O)[C@@]2(O)C[C@H](C)[C@H](O)[C@@H]2[C@H]1O | Non-Toxic |  |  |
| C=C1[C@@H](O)C[C@H](C(C)(C)OCC)/C=C/[C@@H](C)C(=O)[C@@]2(O)C[C@H](C)[C@H](O)[C@@H]2[C@H]1O | Non-Toxic |  |  |
| C=C1CC[C@H](C(C)(C)OC(C)=O)/C=C/[C@@H](C)C(=O)[C@@]2(O)C[C@H](C)[C@H](O)[C@@H]2[C@H]1O | Non-Toxic |  |  |
| C=CC(=O)OC(C)(C)[C@@H]1/C=C/[C@@H](C)C(=O)[C@@]2(O)C[C@H](C)[C@H](O)[C@@H]2[C@@H](O)C(=C)CC1 | Non-Toxic | 6.2 µM | inhibition at 20 µM [2]: 73%; Activity [4]: Active; Activity [5]: Active |
| O=c1c(O)c(-c2ccc(O)c(O)c2)oc2cc(O)cc(O)c12 [QUERCETIN] |  | 10 µM |  |
| C=C1[C@@H](O)C[C@H](C(C)(C)OCCCO)/C=C/[C@@H](C)C(=O)[C@@]2(O)C[C@H](C)[C@H](O)[C@@H]2[C@H]1O | Non-Toxic | 18 µM | inhibition at 20 µM [2]: 56% |
| C=C1[C@@H](O)C[C@H](C(C)(C)OC(=O)COCC)/C=C/[C@@H](C)C(=O)[C@@]2(O)C[C@H](C)[C@H](O)[C@@H]2[C@H]1O | Non-Toxic |  |  |
| C=C1[C@@H](O)C[C@H](C(C)(C)OC(C)=O)/C=C/[C@@H](C)C(=O)[C@@]2(O)C[C@H](C)[C@H](O)[C@@H]2[C@H]1O | Non-Toxic |  |  |
